The values that follow are results of earlier work, collected in US6197982A, “Vitamin D analogues” (priority 1996, dated 2001).

Data set [1] has as its system receptor. Conditions: relative to 1,25(OH)2 D3; cited from earlier work.
Data set [2] concerns HL-60 cancer cells. The following applies: relative to 1,25(OH)2 D3; cited from earlier work.

With `C=C1/C(=C\C=C2/CCC[C@]3(C)[C@@H]([C@H](C)[C@H](CCC(C)(C)O)OC)CC[C@@H]23)C[C@@H](O)C[C@@H]1O` [22S-methoxy-1,25(OH)2 D3], in data set [1], the “receptor binding affinity, times that of 1,25(OH)2 D3” value is 0.03 times. For the same compound, the “potency in inducing differentiation of HL-60 cancer cells, times that of 1,25(OH)2 D3” value in data set [2] is 0.25 times.
